pIC50: −log10 of the molar value.
Experiments:
trypsin = details: commercial trypsin inhibitor; ref Aoyagi et al., 1969; Kurinov and Harrison, 1996; cited from earlier work
Description: Figure 6 Time dependence of trypsin inhibition efficiency (IC50) of pseudospumigin A [•, Psp A (3) + other Psp variants], nostosin A (♦, Ns A) and spumigin E (□, Sp A, from Fewer et al., [2013]). […] Time dependent inhibition is ...

[1] = biological target: T1, Trypsin (porcine pancreas, Sigma-Aldrich) (Sus scrofa, UniProt P00761); experiment: Trypsin inhibition (IC50 measurement); format: biochemical; details: at 1 h; 25°C; hydrolysis followed every 2 min for 1 h; inhibitor from 0 to 81.6 mM (so in the source); tested sample is purified Psp mixture, about 80% Psp A
T1 construct: purchased Sigma-Aldrich; host or cells: porcine pancreas
Experimental: Trypsin (porcine pancreas, Sigma-Aldrich) activity was measured at 25°C in a reaction mixture that contained from 0 to 81.6 mM leupeptin or pseudospumigin A and the hydrolysis was followed at every 2 min for 1 h, as described earlier (Liu et al., [2015]).

T1 sequence (P00761 9-231): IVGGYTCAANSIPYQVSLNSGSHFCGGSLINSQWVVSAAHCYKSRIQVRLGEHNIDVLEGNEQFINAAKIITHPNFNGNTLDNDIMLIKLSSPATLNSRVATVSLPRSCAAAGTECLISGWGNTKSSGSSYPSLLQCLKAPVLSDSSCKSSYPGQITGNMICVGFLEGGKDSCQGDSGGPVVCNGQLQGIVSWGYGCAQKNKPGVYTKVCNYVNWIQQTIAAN

| Molecule | time dependence of trypsin interaction (trypsin) | pIC50 [1] |
| --- | --- | --- |
| Ac-Leu-Leu-Argininal [leupeptin] | interacts with trypsin without time dependency |  |
| CC[C@H](C)[C@H](NC(=O)[C@@H](CCc1ccc(O)cc1)NC(=O)[C@H](O)Cc1ccc(O)cc1)C(=O)NC(C=O)CCCNC(=N)N (some centres unmarked) [Pseudospumigin A] |  | 5.35 |

— publication PMC5640712 (Frontiers in Microbiology, 2017)
